Test results from US20100021918A1, “METHOD FOR ASSAYING ACTION OF ANTITUMOR AGENT USING SPLICING DEFECTS AS INDEX” (Eisai R&D Management Co., Ltd., priority 2007, published 2010).

System: p27/Kip1
Assay: Western blotting of abnormal protein from pre-mRNA, p27/Kip1
Type: cell-based, human
Settings: HeLa cells, about 100 nM, 24 hours; untreated: only a 27 kDa band (FIG. 4)
Source text: Consequently the protein may serves as a protein marker to monitor the action of (8E,12E,14E)-7-((4-cycloheptylpiperazin-1-yl)carbonyl)oxy-3,6,16,21-tetrahydroxy-6,10,12,16,20-pentamethyl-18,19-epoxytricosa-8,12,14-trien-11-olide. Whether the pre-mRNA-dependent abnormal protein practically emerged upon the treatment of (8E,12E,14E)-7-((4-cycloheptylpiperazin-1-yl)carbonyl)oxy-3,6,16,21-tetrahydroxy-6,10,12,16,20-pentamethyl-18,19-epoxytricosa-8,12,14-trien-11-olide was examined by using cancer cells (HaLa). […] Based on these findings, the protein generated from pre-mRNA can serve as the marker as well.
About 3×10^5 cells of HeLa cells were first seeded in a 24-well culture plate (bottom area: 2 cm^2), and 18 hours later, the compound was added thereto at the indicated concentration, followed by additional 24-hour culturing. The cells were washed once with PBS(−), and then were lysed by treating with 0.2 ml of M-PER reagent (PIERCE) for 30 minutes. The collected lysate was filtered with a 0.45 μm filter to remove insoluble matters and then combined with an equal amount of 2×SDS-PAGE sample solution. The mixture was heated to be denatured at 95° C. for five minutes to yield a sample to be analyzed.
The analysis sample (15 μl each) was separated with 5-20% SDS-PAGE and transferred onto a PVDF membrane (Hybond-P: GE-Amersham). […]

For CCC(O)C(C)C1OC1CC(C)(O)/C=C/C=C(\C)C1OC(=O)CC(O)CCC(C)(O)C(OC(=O)N2CCN(C3CCCCCC3)CC2)/C=C/C1C (stereo not shown) [E7107, (8E,12E,14E)-7-((4-cycloheptylpiperazin-1-yl)carbonyl)oxy-3,6,16,21-tetrahydroxy-6,10,12,16,20-pentamethyl-18,19-epoxytricosa-8,12,14-trien-11-olide], the “p27/Kip1 bands in Western blot” value was “appearance of a band with about 22 kDa was confirmed”.
